Experimental data taken from PubChem BioAssay AID2060512 (Molecular Pharmacology Branch, DTP, NCI, 2025).
Several values for one entry are separate records, joined by “and”; a condition that tells them apart may be missing. Equal entries are not always repeated. Blank lines part the entries; values can stand above or below the molecule they belong to.

Test system: 186277-243-T-J2-PDC complex spheroid viability
Assay: Anticancer human tumor 186277-243-T-J2-PDC patient-derived colon adenocarcinoma cell line growth inhibition [GQUAD]
Details: for viability, T/C: stronger effect = lower value
Excerpt: DNA G-quadruplex Stabilizer Agents in Combinations in Complex Spheroids
A high-throughput screen of multi-cell type tumor spheroids was designed to identify active combinations of DNA G-quadruplex stabilizer agents and targeted small molecules. Complex spheroids include a stromal component modeled by human endothelial cells (HUVEC) and fibroblasts modeled by human mesenchymal stem cells (MSCs). The concentration ranges selected for each drug and investigational agent were based upon clinically achievable concentrations if the clinical Cmax of the agent was known.
Compounds. The drugs and investigational agents: pidnarulex (CX-5461; NSC782164), APTO-253 (NSC789042), BRACO-19 (NSC847499), peposertib (NSC802822), ceralasertib (NSC780249), elimusertib (NSC800525), camonsertib (NSC841442), AZD-1390 (NSC803789), olaparib (NSC753686), talazoparib (NSC767125), ART-558 (NSC835418), sotorasib (NSC818433), MRTX-1133 (NSC836407), SN-38 (NSC673596), topotecan (NSC609699), etoposide (NSC141540), doxorubicin (NSC123127), gemcitabine (NSC613327), 5-fluorouracil (NSC19893), paclitaxel (NSC125973), vemurafenib (NSC761431), panobinostat (NSC761190), R-306465 (JNJ-16241199; NSC773264), adavosertib (NSC754352), TP-3654 (NSC805149), carboplatin (NSC241240), KSQ-4279 (NSC840948), and staurosporine (NSC755774) were obtained from the National Cancer Institute (NCI) Developmental Therapeutics Program Chemical Repository (34). The FDA-approved anticancer drug set is available from the NCI Developmental Therapeutics Program. […] The stock solutions were prepared in dimethyl sulfoxide (DMSO, Sigma-Aldrich, St. Louis, MO, cat. D2650) at 800-fold the tested concentration and stored at -70 degrees C prior to their use. All drugs and investigational agents were tested over a range starting from a high concentration at or near the clinical Cmax and decreasing in half-log increments. If the clinical Cmax for an agent had not been determined, the highest concentration tested was 10 microM.
2.3 Cell Culture. All cells were maintained in an incubator at 37 degrees C and 5% CO2 with 95% humidity. The PDC lines were cultured according to standard operating procedures established by the NCI PDMR. All PDCs were thawed and cultured in Matrigel-coated flasks prepared with a working solution of 1X Ham's F-12 nutrient mix, without supplementation (Invitrogen, cat. 11765054), 100 U/mL penicillin-streptomycin (Invitrogen, cat. 15140122), and 2.5% Matrigel (Corning Inc., cat. 354248) for the first three passages. The 857933-349-R-J2-PDC line was cultured in 6C/Colon 1B media, which includes advanced DMEM/F-12 (Thermo Fisher Scientific, cat. 12634028), 10 mM HEPES (Thermo Fisher Scientific, cat. 15630080), 1X GlutaMAX supplement (Thermo Fisher Scientific, cat. 35050061), 0.1 mg/mL primocin (InvivoGen, cat. ant-pm-2), 10% defined fetal bovine serum, heat inactivated (HyClone Laboratories Inc., cat. SH30070.03HI), 50% L-WRN conditioned media (ATCC, cat. CRL-3276), 1.25 mM N-Acetyl-L-cysteine (Sigma-Aldrich, cat. A9165), 10 mM nicotinamide (Sigma-Aldrich, cat. N0636), 1X B-27 supplement (Thermo Fisher Scientific, cat. 17504044), 1X N-2 supplement (Thermo Fisher Scientific, cat. 17502048), 10 microM Y-27632 dihydrochloride (Tocris Bioscience, cat. 1254), and 50 ng/mL human EGF recombinant protein (Thermo Fisher Scientific, cat. PHG0311). The 485176-168-R4-J1-PDC line was cultured in Panc media, which includes all 6C/Colon 1B media components plus 100 ng/mL human FGF-10 (Thermo Fisher Scientific, cat. 100-26), 500 nM SB-431542 (Selleckchem, cat. S1067), and gastrin (Tocris, cat. 3006).
[…]
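Further: spheroids exposed to drugs for 7 days.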
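Wherever viability, T/C is given: 100% = DMSO vehicle control viability.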

SMILES: Cc1[nH]c2ccc(F)cc2c1-c1nc2c3cccnc3c3ncccc3c2[nH]1
- viability, T/C (compound 0.0316 µM): 100% [middle of 12 runs]
- viability, T/C (compound 0.1 µM): 101% [middle of 12 runs]
- viability, T/C (compound 1 µM): 107% [middle of 12 runs]
- viability, T/C (compound 3.16 µM): 98.9% [middle of 12 runs]
- viability, T/C (compound 10 µM): 92.4% [middle of 12 runs]
- IC50 (compound alone, run of 04/16/2024): > 10 µM
- IC50 (compound alone, run of 04/22/2024): > 10 µM

SMILES: Cn1ncnc1[C@H]1c2n[nH]c(=O)c3cc(F)cc(c23)N[C@@H]1c1ccc(F)cc1 + Cc1[nH]c2ccc(F)cc2c1-c1nc2c3cccnc3c3ncccc3c2[nH]1
- IC50 (curve of first compound, second compound 0.0316 µM): > 0.316 µM
- IC50 (curve of first compound, second compound 0.1 µM): > 0.316 µM
- IC50 (curve of first compound, second compound 0.316 µM): > 0.316 µM
- IC50 (curve of first compound, second compound 1 µM): > 0.316 µM
- IC50 (curve of first compound, second compound 3.16 µM): > 0.316 µM
- IC50 (curve of first compound, second compound 10 µM): > 0.316 µM
- viability, T/C (second compound 0.0316 µM, first compound 0.000999 µM): 112%
- viability, T/C (second compound 0.0316 µM, first compound 0.00316 µM): 99.2%
- viability, T/C (second compound 0.0316 µM, first compound 0.00999 µM): 94.8%
- viability, T/C (second compound 0.0316 µM, first compound 0.0316 µM): 94.2%
- viability, T/C (second compound 0.0316 µM, first compound 0.0999 µM): 98.1%
- viability, T/C (second compound 0.0316 µM, first compound 0.316 µM): 89.3%
- viability, T/C (second compound 0.1 µM, first compound 0.000999 µM): 93.5%
- viability, T/C (second compound 0.1 µM, first compound 0.00316 µM): 98.2%
- viability, T/C (second compound 0.1 µM, first compound 0.00999 µM): 101%
- viability, T/C (second compound 0.1 µM, first compound 0.0316 µM): 91.7%
- viability, T/C (second compound 0.1 µM, first compound 0.0999 µM): 84.5%
- viability, T/C (second compound 0.1 µM, first compound 0.316 µM): 95.6%
- viability, T/C (second compound 0.316 µM, first compound 0.000999 µM): 86.3%
- viability, T/C (second compound 0.316 µM, first compound 0.00316 µM): 93.1%
- viability, T/C (second compound 0.316 µM, first compound 0.00999 µM): 96.7%
- viability, T/C (second compound 0.316 µM, first compound 0.0316 µM): 103%
- viability, T/C (second compound 0.316 µM, first compound 0.0999 µM): 91.7%
- viability, T/C (second compound 0.316 µM, first compound 0.316 µM): 88.7%
- viability, T/C (second compound 1 µM, first compound 0.000999 µM): 85.5%
- viability, T/C (second compound 1 µM, first compound 0.00316 µM): 101%
- viability, T/C (second compound 1 µM, first compound 0.00999 µM): 98.4%
- viability, T/C (second compound 1 µM, first compound 0.0316 µM): 102%
- viability, T/C (second compound 1 µM, first compound 0.0999 µM): 102%
- viability, T/C (second compound 1 µM, first compound 0.316 µM): 89.6%
- viability, T/C (second compound 3.16 µM, first compound 0.000999 µM): 103%
- viability, T/C (second compound 3.16 µM, first compound 0.00316 µM): 97.7%
- viability, T/C (second compound 3.16 µM, first compound 0.00999 µM): 113%
- viability, T/C (second compound 3.16 µM, first compound 0.0316 µM): 104%
- viability, T/C (second compound 3.16 µM, first compound 0.0999 µM): 87.5%
- viability, T/C (second compound 3.16 µM, first compound 0.316 µM): 95%
- viability, T/C (second compound 10 µM, first compound 0.000999 µM): 105%
- viability, T/C (second compound 10 µM, first compound 0.00316 µM): 103%
- viability, T/C (second compound 10 µM, first compound 0.00999 µM): 101%
- viability, T/C (second compound 10 µM, first compound 0.0316 µM): 107%
- viability, T/C (second compound 10 µM, first compound 0.0999 µM): 82.1%
- viability, T/C (second compound 10 µM, first compound 0.316 µM): 86.4%

Now from value to molecule, other results behind:

- IC50 (curve of compound): 6.35 µM and 6.16 µM and 5.69 µM
SMILES: CCCS(=O)(=O)Nc1ccc(F)c(C(=O)c2c[nH]c3ncc(-c4ccc(Cl)cc4)cc23)c1F
- viability, T/C (compound 0.0316 µM): 111% and 99.7% and 103%
- viability, T/C (compound 0.1 µM): 114% and 101% and 82.2%
- viability, T/C (compound 0.316 µM): 91.7% and 97.9% and 81.8%
- viability, T/C (compound 1 µM): 92.4% and 78.4% and 81.4%
- viability, T/C (compound 3.16 µM): 94.7% and 87.6% and 78.3%
- viability, T/C (compound 10 µM): 22.4% and 25.9% and 24.6%

- IC50 (curve of compound): > 10 µM
SMILES: Cc1cccc(N(C)C(=O)C2C(O)CCN2c2nc(C)cc(C(F)(F)F)c2C#N)c1 (stereo not given)
- viability, T/C (compound 0.0316 µM): 109% and 93.9% and 95.1%
- viability, T/C (compound 0.1 µM): 91% and 94.3% and 102%
- viability, T/C (compound 0.316 µM): 95.7% and 97.1% and 115%
- viability, T/C (compound 1 µM): 102% and 99.7% and 99.6%
- viability, T/C (compound 3.16 µM): 116% and 97.7% and 102%
- viability, T/C (compound 10 µM): 102% and 104% and 91.5%

- IC50 (curve of compound): 5.94 µM and > 10 µM
SMILES: O=c1[nH]cc(F)c(=O)[nH]1
- viability, T/C (compound 0.0316 µM): 94.6% and 93.4% and 110%
- viability, T/C (compound 0.1 µM): 94.9% and 95.8% and 93.8%
- viability, T/C (compound 0.316 µM): 104% and 108% and 112%
- viability, T/C (compound 1 µM): 97.6% and 114% and 107%
- viability, T/C (compound 3.16 µM): 62.5% and 75.2% and 60.1%
- viability, T/C (compound 10 µM): 39.6% and 52.2% and 50.6%
